Measurements from patent publication US4673684A, “Amide derivatives and 5-lipoxygenase inhibitors containing the same as an active ingredient” (Terumo Corporation, priority 1984, dated 1987).

target: T1, 5-lipoxygenase (Mus musculus, UniProt P48999); assay: 5-Lipoxygenase-inhibiting Activity (decrease in 5-HETE and LTB4 formed from radiolabelled arachidonic acid, enzyme solution from mouse mastcytoma cells P-815); assay type: biochemical; settings: not given
T1 construct: The supernatant is used as a 5-lipogenase enzyme solution; endogenous in cells
T1 sequence (P48999 1-674): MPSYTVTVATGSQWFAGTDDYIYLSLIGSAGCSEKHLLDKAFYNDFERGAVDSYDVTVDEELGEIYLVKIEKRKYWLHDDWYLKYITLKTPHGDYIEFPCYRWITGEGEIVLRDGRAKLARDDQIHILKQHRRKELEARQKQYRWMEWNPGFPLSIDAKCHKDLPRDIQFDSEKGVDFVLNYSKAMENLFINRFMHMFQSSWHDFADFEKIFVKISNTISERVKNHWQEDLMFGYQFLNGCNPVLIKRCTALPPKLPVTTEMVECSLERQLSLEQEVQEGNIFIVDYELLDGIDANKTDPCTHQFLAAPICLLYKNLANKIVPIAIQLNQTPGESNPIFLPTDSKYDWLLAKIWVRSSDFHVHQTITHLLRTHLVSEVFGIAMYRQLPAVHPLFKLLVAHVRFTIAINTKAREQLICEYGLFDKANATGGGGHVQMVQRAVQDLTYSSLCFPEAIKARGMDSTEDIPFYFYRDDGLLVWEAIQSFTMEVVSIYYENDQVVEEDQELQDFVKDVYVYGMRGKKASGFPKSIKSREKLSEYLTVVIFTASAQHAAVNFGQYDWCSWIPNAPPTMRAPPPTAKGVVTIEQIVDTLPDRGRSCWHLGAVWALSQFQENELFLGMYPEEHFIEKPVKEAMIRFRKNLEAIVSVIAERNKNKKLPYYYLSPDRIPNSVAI
Description: Mouse mastcytoma cells P-815 are diluted in a culture solution, containing 90% Eagle Basic Medium (manufactured by Gibco Laboratories) to 5×10^4 cells/ml. The diluted solution is cultivated with shaking in air at 37° C. for 48 hours. Then, the culture solution is cooled with ice and centrifuged to collect the cells. The cells are suspended in a phosphate buffer solution at pH 7.4 at a concentration of 2×10^7 cells/ml. The suspension is treated in a ultrasonic cell disintegrater and then centrifuged at 10,000 r.p.m. for 10 min. The supernatant is used as a 5-lipogenase enzyme solution. In test tubes are placed 20 μl of radiolabelled arachidonic acid ([…]), indomethacin (2×10^-8 mol) and an amide derivative to be tested, respectively. To each of the test tubes are added 0.45 ml of a phosphate buffer solution, 0.45 ml of the above-prepared suspension, 0.45 ml of the above-prepared enzyme solution and 0.1 ml of 8 mM CaCl2 (calcium chloride). The mixture is reacted at 37° C. for 5 min. After cooled with ice, 60 μl of 1N-HCl (hydrochloric acid is added to the reaction mixture, which is then extracted with 8 ml of ethyl acetate. The extract is concentrated, and the concentrate is developed by spotting on a silica gel thin layer plate (Merck 60F 254). Measurement of the inhibitory activity is made by collecting fractions corresponding to lipoxygenase products 5-HETE (5(s)-hydroxy-6,8,11,14-eicosatetraenic acid) and LTB4 (leucotriene B4) and determining the radioactivity by a liquid scintillation counter. The lipoxygenase inhibiting activity is determined by decrease in the amount of the above-mentioned 5-lipoxygenaseproducts. […] 50% inhibitory concentration or 30% inhibitory concentration as indicated in the table means the concentration of an amide derivative required for reducing the amount of the above-mentioned 5-lipoxygenase products (5-HETE and LTB4) to 50% or 30% of the amount when the amount of 5-HETE and LTB4 produced in the absenced of the amide derivative is 100%.

| SMILES | IC50 [nM] |
| --- | --- |
| COc1ccc(/C=C/C(=O)N2CCN(CCOC(c3ccccc3)c3ccccc3)CC2)cc1OC [Example 76, N-[3-(3,4-dimethoxyphenyl) -2-propenoyl]-N'-(2-benzhydroxyethyl)piperazine] | 20000 |
| COc1cc(/C=C/C(=O)N2CCN(CCOC(c3ccccc3)c3ccccc3)CC2)cc(OC)c1O [Example 79, N-[3-(3,5-dimethoxy-4-hydroxyphenyl) -2-propenoyl]-N'-(2-benzhydroxyethyl)piperazine] | 40 |
| O=C(/C=C/C=C/c1ccc(O)c(O)c1)N1CCN(CCOC(c2ccccc2)c2ccccc2)CC1 [Example 84, N-[5-(3,4-dihydroxyphenyl)-2,4-pentadienoyl]--N'-(2-benzhydroxyethyl)piperazine] | 30 |

same assay, conditions: 5-HETE and LTB4 formation; mouse mastcytoma P-815 enzyme solution; 37° C., 5 min; pH 7.4; with indomethacin; read-out: 50% Inhibitory concentration IC50

| IC50 [nM] | SMILES |
| --- | --- |
| 2000 | COc1cc(/C=C/C=C/C(=O)NCCN2CCN(C(c3ccccc3)c3ccccc3)CC2)cc(OC)c1OC [Example 59, N-[2-[5-(3,4,5-trimethoxyphenyl)-2,4-pentadienoyl]aminoethyl]-N'-benzhydrylpiperazine] |
| 3000 | O=C(/C=C/C=C/c1ccc2c(c1)OCO2)NCCN1CCN(C(c2ccccc2)c2ccccc2)CC1 [Example 61, N-[2-[5-(3,4-methylenedioxyphenyl)-2,4-pentadienoyl]aminoethyl]-N'-benzhydrylpiperazine] |
| 2000 | O=C(/C=C/C=C/c1ccc2c(c1)OCO2)NCCCN1CCN(C(c2ccccc2)c2ccccc2)CC1 [Example 62, N-[3-[5-(3,4,-methylenedioxyphenyl)-2,4-pentadienoyl]aminopropyl]-N'-benzhydrylpipeerazine] |
| 50 | O=C(/C=C/c1ccc(O)c(O)c1)NCCCCN1CCN(C(c2ccccc2)c2ccc(Cl)cc2)CC1 (stereo not drawn) [Example 63] |
| 30 | O=C(/C=C/c1ccc(O)c(O)c1)NCCCCN1CCN(C(c2ccccc2)c2ccccc2)CC1 [Example 64, N-[4-[3-,4-(3,4-dihydroxyphenyl)-2-propenoyl]aminobutyl]N'-benzhydrylpiperazine] |
| 30 | O=C(/C=C/c1ccc(O)c(O)c1)NCCOC(c1ccccc1)c1ccccc1 [Example 67, 2-[3-(3,4-dihydroxy)phenyl-2-propenoyl]aminoethyl benzhydryl ether] |
| 40 | COc1cc(/C=C/C(=O)NCCCCN2CCN(C(c3ccccc3)c3ccccc3)CC2)ccc1O [Example 68] |
| 600 | COc1cc(/C=C/C(=O)N2CCN(CCCOC(c3ccccc3)c3ccccc3)CC2)ccc1O [Example 71, N-[3-(3-methoxy-4-hydroxy)phenyl-2-propenoyl]-(3-benzhydroxypropyl)piperazine] |
| 8000 | COc1ccc(/C=C/C(=O)NCCCCN2CCN(C(c3ccccc3)c3ccccc3)CC2)cc1OC [Example 74, N-[4-[3-(3,4-dimethoxyphenyl)-2-propenoyl]aminobutyl]-N'-benzhydrylpiperazine] |
| 30 | COc1cc(/C=C/C(=O)NCCCCN2CCN(C(c3ccccc3)c3ccccc3)CC2)cc(OC)c1O [Example 78, N-benzyhdryl-N'-3-(3,5-dimethoxy-4-hydroxy)phenyl-2-propenoylaminobutylpiperazine] |
| 20 | O=C(/C=C/C=C/c1ccc(O)c(O)c1)NCCCCN1CCN(C(c2ccccc2)c2ccc(Cl)cc2)CC1 (stereo not drawn) [Example 82, N-(p-chlorobenzhydryl)-N'-[4-[5-(3,4-dihydreoxyphenyl) -2,4-pentadienoyl]aminobutyl]piperazine] |
| 40 | O=C(/C=C/C=C/c1ccc(O)c(O)c1)NCCCCN1CCN(C(c2ccccc2)c2ccccc2)CC1 [Example 83, N-benzhydryl-N'-5-(3,4-dihydroxyphenyl)-2,4-pentadienoylaminobutylpiperazine] |
| 30 | O=C(/C=C/C=C/c1ccc(O)c(O)c1)N1CCN(CCCOC(c2ccccc2)c2ccccc2)CC1 [Example 85, N-[5,[3,4-hydroxyphenyl]-2,4-pentadienoyl]-N'-(3-benzhydroxypropyl)piperazine] |
| 40 | COc1cc(/C=C/C=C/C(=O)NCCCCN2CCN(C(c3ccccc3)c3ccc(Cl)cc3)CC2)ccc1O (stereo not drawn) [Example 86] |
| 60 | COc1cc(/C=C/C=C/C(=O)NCCCCN2CCN(C(c3ccccc3)c3ccccc3)CC2)ccc1O [Example 87, N-benzhydryl-N'-[4-[5-(3-methoxy-4-hydroxyphenyl)-2,4-pentadienoyl]aminobutyl]piperzine] |

The remaining lines, values behind:

| SMILES | IC50 [nM] |
| --- | --- |
| COc1cc(/C=C/C=C/C(=O)NCc2c(CO)cnc(C)c2O)cc(OC)c1O [Example 56, 4-[5-(3,5-dimethoxy-4-hydroxyphenyl)-2,4-pentadineoyl]aminomethyl-3-hydroxy-5-hydroxymethyl-2-methylpyridine] | 1000 |
| COc1cc(/C=C/C=C/C(=O)Nc2ccccc2C(=O)O)cc(OC)c1O [Example 57, N-{5-(3,5-dimethoxy-4-hydroxyphenyl)-2,4-pentadienoyl}anthranilic acid] | 400 |
| COc1cc(/C=C/C=C/C(=O)NCc2c(COC(=O)c3ccc(C)cc3)cnc(C)c2O)cc(OC)c1OC(=O)c1ccc(C)cc1 [Example 58, 4-{5-(3,5-dimethoxy-4-toluoxyphenyl)-2,4-pentadienoyl}aminomethyl-3-hydroxy-2methyl-5-toluoxymethylpyridine] | 3000 |
| COc1cc(/C=C/C=C/C(=O)NCc2c(CO)cnc(C)c2O)cc(OC)c1OC [Example 60, 4-[5-(3,4,5-trimethoxyphenyl)-2,4-pentadienoyl]aminomethyl-3-hydroxy-5-hydroxymethyl-2-methylpyridine] | 100000 |
| Cn1c(=O)c2c(ncn2CCNC(=O)/C=C/c2ccc(O)c(O)c2)n(C)c1=O [Example 65, 7-[2-[3-(3,4-dihydroxy)phenyl-2-propenoyl]aminoethyl]theophilline] | 2000 |
| O=C(/C=C/c1ccc(O)c(O)c1)N1CCN(CCOC(c2ccccc2)c2ccccc2)CC1 [Example 66, N-[3-(3,4-dihydroxyphenyl)-2-propenoyl]-N'-(2-benzhydroxyethyl)] | 30 |
| COc1cc(/C=C/C(=O)NCCn2cnc3c2c(=O)n(C)c(=O)n3C)ccc1O [Example 69, 7-[2-[3-(3-methoxy-4-hydroxy)phenyl-2-propenoyl]aminoethyl]theophylline] | 6000 |
| COc1cc(/C=C/C(=O)N2CCN(CCOC(c3ccccc3)c3ccccc3)CC2)ccc1O [Example 70] | 600 |
| COc1cc(/C=C/C(=O)NCCOC(c2ccccc2)c2ccccc2)ccc1O [Example 72, 2-[3-(3-methoxy-4-hydroxy)phenyl-2-propenoyl]aminoethyl benzhydryl ether] | 900 |
| COc1cc(/C=C/C(=O)NCCCOC(c2ccccc2)c2ccccc2)ccc1O [Example 73, 3-[3-[3-methoxy-4-hydroxyphenyl)-2-propenoyl]aminopropyl benzhydryl ether] | 700 |
| COc1ccc(/C=C/C(=O)NCCn2cnc3c2c(=O)n(C)c(=O)n3C)cc1OC [Example 75, 7-[2-[3-(3,4-dimethoxyphenyl) -2-porpenoyl]aminoethyl]theophylline] | 20000 |
| COc1ccc(/C=C/C(=O)NCCOC(c2ccccc2)c2ccccc2)cc1OC [Example 77, 2-[3-(3,4-dimethoxyphenyl)-2-propenoyl]aminoethyl benzhydryl ether] | 10000 |
| COc1cc(/C=C/C(=O)N2CCN(CCCOC(c3ccccc3)c3ccccc3)CC2)cc(OC)c1O [Example 80, N-[3-(3,5-dimethoxy-4-hydroxyphenyl) 2-propenoyl]-N'-(3-benzhydroxypropyl)piperazine] | 30 |
| COc1cc(/C=C/C(=O)NCCOC(c2ccccc2)c2ccccc2)cc(OC)c1O [Example 81, 2-[3-(3,5-dimethoxy-4-hydroxy]phenyl-2-propenoyl) aminoethyl benzhydryl ether] | 50 |
| COc1cc(/C=C/C=C/C(=O)NCCn2cnc3c2c(=O)n(C)c(=O)n3C)ccc1O [Example 88] | 4000 |
